Several values for one entry are separate records, joined by “and”; a condition that tells them apart may be missing. Equal values may be shown once. Read-outs that look alike come from different tables or passages of the source.

Assay [1] deals with T1, HIV-1 protease (Human immunodeficiency virus type 1 group M subtype B, UniProt P04585). The experiment in a line: biochemical. The conditions noted are these: for inhibition at 0.37 µM: read-out: HIV-1 Protease % Inhib, dose 0.370 uM; for inhibition at 1.1 µM: read-out: HIV-1 Protease % Inhib, dose 1.100 uM. Put shortly: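 Biotinylated, FITC-labeled peptide substrate (20 μl of 0.2 μM) incubated with HIV-1 protease (10 μl of 0.1 μM) and compound in 0.1 M sodium acetate pH 5.5, 1.0 M NaCl, 0.05% NP-40, 1 h, room temperature, dark. Streptavidin beads then capture uncleaved substrate; filtered labeled product read by fluorescence, giving percent inhibition.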

The target of assay [2] is T1, HIV-1 protease. The experiment in a line: biochemical. The conditions noted are these: read-out: HIV-1 FITC KI. Here is the method: Determination of Ki values utilizes the same materials and equipment employed for percent inhibition studies. Two-fold serial dilutions are made for a given inhibitor from 2, 3 or 4 starting concentrations with a total of 24, 36 or 48 individual inhibitor concentrations. These dilutions are performed utilizing the BioMek robotics system. The assay consists of 10 μL of 40 nM HIV-1 protease, 10 μL of the various inhibitor concentrations, and 20 μL of 200 μM substrate (40 μL total). The reaction is allowed to proceed for 90 min at room temperature, terminated with 40 μL of avidin beads and processed (supra vide). An inhibitor with a known Ki is run in parallel to verify the validity of the assay. The data is processed utilizing a computer program employing a nonlinear least square analysis of the data to generate the Ki values.

The mark [3] stands for this setting: read-out: HIV-1 Protease % Inhib, dose 3.300 uM.
Setting [4] is: read-out: HIV-1 Protease % Inhib, dose 10.000 uM.
The mark [5] stands for this setting: read-out: HIV-1 Protease % Inhib, dose 30.000 uM.
[6] abbreviates: dose 3.300 uM, read-out: HIV-1 Protease % Inhib.
Where [7] appears, read: dose 10.000 uM, read-out: HIV-1 Protease % Inhib.
[8] abbreviates: dose 30.000 uM, read-out: HIV-1 Protease % Inhib.

A word on the Ki: it is the equilibrium dissociation constant of an inhibitor or competing ligand from its target. Consider `CCCC1CCCCCc2c1oc(=O)c([C@@H](c1ccccc1)C1CC1)c2O` (mixture of isomers) [Example 232, 3-(R)-(Cyclopropylphenylmethyl)-4-hydroxy-10-(R and S)-propyl-5,6,7,8,9,10-hexahydro-cycloocta[b]pyran-2-one], for which the inhibition at 0.123 µM at HIV-1 protease [1] (read-out: HIV-1 Protease % Inhib, dose 0.123 uM) turned out to be 19.3%. On HIV-1 protease [1], the inhibition at 0.37 µM was found to be 51.2% and the inhibition at 1.1 µM stood at 80.4%. On HIV-1 protease [1] (setting [3]), the inhibition at 3.3 µM was 95.3%. Further, at HIV-1 protease [1] (setting [4]), the inhibition at 10 µM stood at 104%. In addition, the inhibition at 30 µM at HIV-1 protease [1] (setting [5]) was found to be 95%. Also, the inhibitory constant (Ki) on HIV-1 protease [2] is 30 nM.
With `O=c1oc2c(c(O)c1C(c1ccccc1)C1CC1)CCCCC2` (single isomer, unassigned) [Example 230, (R or S)-3-(Cyclopropylphenylmethyl)-6,7,8,9-tetrahydro-4-hydroxy-cyclohepta[b]pyran-2(5H)-one], at HIV-1 protease [2], the inhibitory constant (Ki) is 264 nM and 280 nM.
On the same count and under the same terms, in the case of `O=c1oc2c(c(O)c1C(c1ccccc1)C1CC1)CCCCC2` (single isomer, unassigned) [Example 231, (R or S)-3-(Cyclopropylphenylmethyl)-6,7,8,9-tetrahydro-4-hydroxy-cyclohepta[b]pyran-2(5H)-one] it was 109 nM and 126 nM; in that of `CCCC1CCCCCc2c1oc(=O)c([C@@H](c1ccccc1)C1CC1)c2O` (single isomer, unassigned) [Example 233, 3-(R)-(Cyclopropylphenylmethyl)4-hydroxy-10-(R or S)-propyl-5,6,7,8,9,10-hexahydro-cycloocta[b]pyran-2-one], 147 nM and 180 nM and 302 nM.
The same measure, in the same setting: in the case of `CCCC1CCCCCc2c1oc(=O)c([C@@H](c1ccccc1)C1CC1)c2O` (single isomer, unassigned) [Example 234, 3-(R)-(Cyclopropylphenylmethyl)4-hydroxy-10-(R or S)-propyl-5,6,7,8,9,10-hexahydro-cycloocta[b]pyran-2-one] it was 12.8 nM and 13 nM and 18.8 nM; in that of `CCCC1CCCCCc2c1oc(=O)c([C@H](c1ccccc1)C1CC1)c2O` (single isomer, unassigned) [Example 236, 3-(S)-(Cyclopropylphenylmethyl)-4-hydroxy-10-(R or S)-propyl-5,6,7,8,9,10-hexahydro-cycloocta[b]pyran-2-one], 10 nM and 8 nM.
Still for that read-out and setting: then `CCCC1CCCCCc2c1oc(=O)c([C@H](c1ccccc1)C1CC1)c2O` (single isomer, unassigned) [Example 237, 3-(S)-(Cyclopropylphenylmethyl)-4-hydroxy-10-(R or S)-propyl-5,6,7,8,9,10-hexahydro-cycloocta[b]pyran-2-one], with 60 nM and 117 nM; and `O=c1oc2c(c(O)c1[C@@H](c1ccccc1)C1CC1)CCCCCC2` [Example 228], with 34.8 nM.
For `O=c1oc2c(c(O)c1[C@H](c1cccc(NS(=O)(=O)c3ccc(Cl)cc3)c1)C1CC1)CCCCCC2` [Example 250, (-)-4-Chloro-N-[3-[cyclopropyl(5,6,7,8,9,10-hexahydro-4-hydroxy-2-oxo-2H-cycloocta[b]pyran-3-yl)methyl]phenyl]-benzenesulfonamide], on HIV-1 protease [2], the Ki came out at 1.23 nM.
Same read-out and setting: then `O=c1oc2c(c(O)c1[C@@H](c1cccc(NS(=O)(=O)c3ccc(Cl)cc3)c1)C1CC1)CCCCCC2` [Example 251, (+)-4-Chloro-N-[3-[cyclopropyl(5,6,7,8,9,10-hexahydro-4-hydroxy-2-oxo-2H-cycloocta[b]pyran-3-yl)methyl]phenyl]-benzenesulfonamide], with 1.25 nM; and `N#Cc1ccc(S(=O)(=O)Nc2cccc([C@@H](c3c(O)c4c(oc3=O)CCCCCC4)C3CC3)c2)cc1` [Example 255, (-)-4-Cyano-N-[3-[cyclopropyl(5,6,7,8,9, 10-hexahydro-4-hydroxy-2-oxo-2H-cycloocta[b]pyran-3-yl)methyl]phenyl]-benzenesulfonamide], with 0.62 nM.
The same measure, in the same setting: in the case of `O=c1oc2c(c(O)c1[C@H](c1cccc(NS(=O)(=O)/C=C/c3ccccc3)c1)C1CC1)CCCCCC2` [Example 257, (-)-N-[3-[Cyclopropyl(5,6,7,8,9,10-hexahydro4-hydroxy-2-oxo-2H cycloocta[b]pyran-3-yl)methyl]phenyl]-2-phenyl-[(E)]-ethenesulfonamide] it was 3 nM; in that of `O=c1oc2c(c(O)c1[C@H](c1cccc(NS(=O)(=O)c3ccccc3)c1)C1CC1)CCCCCC2` [Example 258, (-)-N-[3-[Cyclopropyl(5,6,7,8,9,10-hexahydro4-hydroxy-2-oxo-2H-cycloocta[b]pyran-3-yl)methyl]phenyl]-benzenesulfonamide], 7.6 nM; in that of `N#Cc1ccc(S(=O)(=O)Nc2cccc([C@H](c3c(O)c4c(oc3=O)CCCCCC4)C3CC3)c2)cc1` [Example 259, (+)4-Cyano-N-[3-[cyclopropyl(5,6,7,8,9,10-hexahydro4-hydroxy-2-oxo-2H-cycloocta[b]pyran-3-yl)methyl]phenyl]-benzenesulfonamide], 0.71 nM.
Still for that read-out and setting: then `O=c1oc2c(c(O)c1[C@@H](c1cccc(NS(=O)(=O)/C=C/c3ccccc3)c1)C1CC1)CCCCCC2` [Example 261, (+)-N-[3-[Cyclopropyl(5,6,7,8,9,10-hexahydro-4-hydroxy-2-oxo-2H-cycloocta[b]pyran-3-yl)methyl]phenyl]-2-phenyl-[(E)]-ethenesulfonamide], with 3.1 nM; and `O=c1oc2c(c(O)c1[C@@H](c1cccc(NS(=O)(=O)c3ccccc3)c1)C1CC1)CCCCCC2` [Example 401, N-[3-[Cyclopropyl(5,6,7,8,9,10-hexahydro-4-hydroxy-2-oxo-2H-cycloocta[b]pyran-3-yl)methyl]phenyl]-(R)-benzenesulfonamide], with 2.3 nM.
As for `O=c1oc2c(c(O)c1C(c1ccccc1)c1ccccc1)CCCCCC2` [Example 481, 3-(Diphenylmethyl)-5,6,7,8,9,10-hexahydro-4-hydroxy-2H-cycloocta[b]pyran-2-one], on HIV-1 protease [1], the inhibition at 0.37 µM was determined as 118% and the inhibition at 1.1 µM was found to be 51.2%. Moreover, the inhibition at 3.3 µM on HIV-1 protease [1] (setting [3]) is 85.3%. For the same compound, the inhibition at 10 µM on HIV-1 protease [1] (setting [4]) worked out at 98%. For the same compound, the inhibition at 30 µM on HIV-1 protease [1] (setting [5]) amounted to 107%.
As to `O=c1oc2c(c(O)c1C(Cc1ccccc1)Cc1ccccc1)CCCCC2` [Example 482, 3-(1,3-Diphenyl-2-propyl)-5,6,7,8,9-pentahydro-4-hydroxy-2H-cyclohepta[b]pyran-2-one], the inhibition at 3.3 µM on HIV-1 protease [1] (setting [6]) is 20%. The inhibition at 10 µM at HIV-1 protease [1] (setting [7]) was determined as 63.2%. The inhibition at 30 µM on HIV-1 protease [1] (setting [8]) amounted to 92.6%.
For `Nc1cc(N)cc(C(c2c(O)c3c(oc2=O)CCCCCC3)C2CC2)c1` (centres unmarked) [Example 484, 3-[Cyclopropyl-(3,5-diamino-phenyl)-methyl]-4-hydroxy-5,6,7,8,9,10-hexahydro-cycloocta[b]pyran-2-one] the same measures were 17.7%, 37.2% and 51.6%.
`O=c1oc2c(c(O)c1C(c1cc(NS(=O)(=O)c3cccc4cccnc34)cc(NS(=O)(=O)c3cccc4cccnc34)c1)C1CC1)CCCCCC2` (centres unmarked) [Example 485, N-[3-[Cyclopropyl-(4-hydroxy-2-oxo-5,6,7,8,9,10-hexahydro-2H-cycloocta[b]pyran-3-yl)-methyl]-5-8-quinolinesulfonylamino-phenyl]-8-quinolinesulfonamide]: the inhibition at 10 µM on HIV-1 protease [1] (setting [7]) was 13.1%. Further, at HIV-1 protease [1] (setting [8]), the inhibition at 30 µM turned out to be 54.2%.

The record behind these values is patent publication US5686486A, “4-hydroxy-benzopyran-2-ones and 4-hydroxy-cycloalkyl[b]pyran-2-ones useful to treat retroviral infections” (priority 1995, dated 1997).
